In the supplement of paper PMC9663587:

Assays:
Paclitaxel = compound: CC(=O)O[C@H]1C(=O)[C@@]2(C)[C@H]([C@H](OC(=O)c3ccccc3)[C@]3(O)C[C@H](OC(=O)[C@H](O)[C@@H](NC(=O)c4ccccc4)c4ccccc4)C(C)=C1C3(C)C)[C@]1(OC(C)=O)CO[C@@H]1C[C@@H]2O [Paclitaxel]
Ipatasertib/GDC0068 = compound: CC(C)NC[C@@H](C(=O)N1CCN(c2ncnc3c2[C@H](C)C[C@H]3O)CC1)c1ccc(Cl)cc1 [Ipatasertib/GDC0068]
Luminespib/NVP-AUY922 = compound: CCNC(=O)c1noc(-c2cc(C(C)C)c(O)cc2O)c1-c1ccc(CN2CCOCC2)cc1 [Luminespib/NVP-AUY922]
BSJ-01-175 = compound: CN(C)C/C=C/C(=O)Nc1ccc(O[C@@H]2CCC[C@@H](Nc3ncc(Cl)c(-c4c[nH]c5ccccc45)n3)C2)cc1 [BSJ-01-175]
ABT-737 = compound: CN(C)CC[C@H](CSc1ccccc1)Nc1ccc(S(=O)(=O)NC(=O)c2ccc(N3CCN(Cc4ccccc4-c4ccc(Cl)cc4)CC3)cc2)cc1[N+](=O)[O-] [ABT-737]
Flavopiridol [1] = compound: T1, CN1CC[C@H](c2c(O)cc(O)c3c(=O)cc(-c4ccccc4Cl)oc23)[C@H](O)C1 [Flavopiridol]
Doxorubicin = compound: COc1cccc2c1C(=O)c1c(O)c3c(c(O)c1C2=O)C[C@@](O)(C(=O)CO)C[C@@H]3O[C@H]1C[C@H](N)[C@H](O)[C@H](C)O1 [Doxorubicin]
Taselisib/GDC0032 = compound: Cc1nc(-c2cn3c(n2)-c2ccc(-c4cnn(C(C)(C)C(N)=O)c4)cc2OCC3)n(C(C)C)n1 [Taselisib/GDC0032]
Olaparib/AZD2281 = compound: O=C(c1cc(Cc2n[nH]c(=O)c3ccccc23)ccc1F)N1CCN(C(=O)C2CC2)CC1 [Olaparib/AZD2281]
YKL-5-124 = compound: C=CC(=O)Nc1ccc(C(=O)Nc2[nH]nc3c2CN(C(=O)N[C@H](CN(C)C)c2ccccc2)C3(C)C)cc1 [YKL-5-124]; assay: GR value, 72 h; higher = faster growth (1 = untreated, <0 = killing);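 further: breast cancer and non-malignant breast epithelial lines, nine half-log doses, viable cells counted by Hoechst and LIVE/DEAD dye imaging versus time-zero plates and DMSO controls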
BSJ-03-123 = compound: CC(=O)c1c(C)c2cnc(Nc3ccc(N4CCN(CCOCCOCCOCCNC(=O)COc5cccc6c5C(=O)N(C5CCC(=O)NC5=O)C6=O)CC4)cn3)nc2n(C2CCCC2)c1=O [BSJ-03-123]; assay: as above
[2] = compound: CC(=O)c1c(C)c2cnc(Nc3ccc(N4CCNCC4)cn3)nc2n(C2CCCC2)c1=O; assay: as above
[3] = compound: CCN1CCN(Cc2ccc(Nc3ncc(F)c(-c4cc(F)c5nc(C)n(C(C)C)c5c4)n3)nc2)CC1; assay: as above
[4] = compound: CCc1cnn2c(NCc3ccc[n+]([O-])c3)cc(N3CCCC[C@H]3CCO)nc12; assay: as above
LEE011/Ribociclib = compound: CN(C)C(=O)c1cc2cnc(Nc3ccc(N4CCNCC4)cn3)nc2n1C1CCCC1 [LEE011/Ribociclib]; assay: as above
THZ531 = compound: CN(C)C/C=C/C(=O)Nc1ccc(C(=O)N2CCC[C@@H](Nc3ncc(Cl)c(-c4c[nH]c5ccccc45)n3)C2)cc1 [THZ531]; assay: as above
Flavopiridol [5] = compound: T1, Flavopiridol; assay: as above
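Wherever GR50, 72 h is given: breast cancer and non-malignant breast epithelial cell lines, Deep Dye Drop or Dye Drop imaging, nine half-log doses, GR normalized to time-zero plates and DMSO-only controls.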

Cell Line: HCC1143
- GR50, 72 h (Paclitaxel): 0.00207 µM
- GR50, 72 h (Ipatasertib/GDC0068): > 10 µM
- GR50, 72 h (Luminespib/NVP-AUY922): 0.00391 µM
- GR50, 72 h (BSJ-01-175): 0.0506 µM
- GR50, 72 h (ABT-737): 6.19 µM
- GR50, 72 h (Flavopiridol [1]): 0.17 µM
- GR50, 72 h (Doxorubicin): 0.00927 µM
- GR50, 72 h (Taselisib/GDC0032): 0.215 µM
- GR50, 72 h (Olaparib/AZD2281): 8.83 µM
- GR value (YKL-5-124; 0.001 µM): 0.423 GR
- GR value (YKL-5-124; 0.003162 µM): 0.398 GR
- GR value (YKL-5-124; 0.01 µM): 0.336 GR
- GR value (YKL-5-124; 0.03162 µM): 0.241 GR
- GR value (YKL-5-124; 0.1 µM): 0.223 GR
- GR value (YKL-5-124; 0.3162 µM): 0.183 GR
- GR value (YKL-5-124; 1 µM): 0.142 GR
- GR value (YKL-5-124; 3.162 µM): 0.0598 GR
- GR value (YKL-5-124; 10 µM): -0.0734 GR
- GR value (BSJ-03-123; 0.001 µM): 0.905 GR
- GR value (BSJ-03-123; 0.003162 µM): 0.89 GR
- GR value (BSJ-03-123; 0.01 µM): 0.906 GR
- GR value (BSJ-03-123; 0.03162 µM): 0.858 GR
- GR value (BSJ-03-123; 0.1 µM): 0.861 GR
- GR value (BSJ-03-123; 0.3162 µM): 0.797 GR
- GR value (BSJ-03-123; 1 µM): 0.613 GR
- GR value (BSJ-03-123; 3.162 µM): 0.481 GR
- GR value (BSJ-03-123; 10 µM): 0.028 GR
- GR value ([2]; 0.0003162 µM): 0.997 GR
- GR value ([2]; 0.001 µM): 1.01 GR
- GR value ([2]; 0.003162 µM): 1.01 GR
- GR value ([2]; 0.01 µM): 0.955 GR
- GR value ([2]; 0.03162 µM): 0.793 GR
- GR value ([2]; 0.1 µM): 0.652 GR
- GR value ([2]; 0.3162 µM): 0.503 GR
- GR value ([2]; 1 µM): 0.392 GR
- GR value ([2]; 3.162 µM): 0.275 GR
- GR value ([3]; 0.001 µM): 0.881 GR
- GR value ([3]; 0.003162 µM): 0.924 GR
- GR value ([3]; 0.01 µM): 0.746 GR
- GR value ([3]; 0.03162 µM): 0.604 GR
- GR value ([3]; 0.1 µM): 0.406 GR
- GR value ([3]; 0.3162 µM): 0.282 GR
- GR value ([3]; 1 µM): 0.178 GR
- GR value ([3]; 3.162 µM): 0.142 GR
- GR value ([3]; 10 µM): -0.0908 GR
- GR value ([4]; 0.0001 µM): 0.993 GR
- GR value ([4]; 0.0003162 µM): 0.988 GR
- GR value ([4]; 0.001 µM): 0.99 GR
- GR value ([4]; 0.003162 µM): 1.04 GR
- GR value ([4]; 0.01 µM): 0.95 GR
- GR value ([4]; 0.03162 µM): -0.238 GR
- GR value ([4]; 0.1 µM): -0.231 GR
- GR value ([4]; 0.3162 µM): -0.252 GR
- GR value ([4]; 1 µM): -0.228 GR
- GR value (LEE011/Ribociclib; 0.001 µM): 0.856 GR
- GR value (LEE011/Ribociclib; 0.003162 µM): 0.876 GR
- GR value (LEE011/Ribociclib; 0.01 µM): 0.848 GR
- GR value (LEE011/Ribociclib; 0.03162 µM): 0.74 GR
- GR value (LEE011/Ribociclib; 0.1 µM): 0.753 GR
- GR value (LEE011/Ribociclib; 0.3162 µM): 0.712 GR
- GR value (LEE011/Ribociclib; 1 µM): 0.72 GR
- GR value (LEE011/Ribociclib; 3.162 µM): 0.551 GR
- GR value (LEE011/Ribociclib; 10 µM): 0.311 GR
- GR value (THZ531; 0.0001 µM): 0.974 GR
- GR value (THZ531; 0.0003162 µM): 0.976 GR
- GR value (THZ531; 0.001 µM): 1.03 GR
- GR value (THZ531; 0.003162 µM): 0.957 GR
- GR value (THZ531; 0.01 µM): 1.02 GR
- GR value (THZ531; 0.03162 µM): 0.937 GR
- GR value (THZ531; 0.1 µM): 0.689 GR
- GR value (THZ531; 0.3162 µM): -0.125 GR
- GR value (THZ531; 1 µM): -0.228 GR
- GR value (Flavopiridol [5]; 0.0001 µM): 1 GR
- GR value (Flavopiridol [5]; 0.0003162 µM): 1.04 GR
- GR value (Flavopiridol [5]; 0.001 µM): 0.952 GR
- GR value (Flavopiridol [5]; 0.003162 µM): 0.964 GR
- GR value (Flavopiridol [5]; 0.01 µM): 0.988 GR
- GR value (Flavopiridol [5]; 0.03162 µM): 0.933 GR
- GR value (Flavopiridol [5]; 0.1 µM): 0.722 GR
- GR value (Flavopiridol [5]; 0.3162 µM): 0.175 GR
- GR value (Flavopiridol [5]; 1 µM): -0.31 GR

Cell Line: SUM44PE
- GR50, 72 h (Paclitaxel): 0.00153 µM
- GR50, 72 h (Ipatasertib/GDC0068): 0.27 µM
- GR50, 72 h (Luminespib/NVP-AUY922): 0.00453 µM
- GR50, 72 h (BSJ-01-175): 0.0082 µM
- GR50, 72 h (ABT-737): 4.3 µM
- GR50, 72 h (Flavopiridol [1]): 0.0276 µM
- GR50, 72 h (Doxorubicin): 0.0211 µM
- GR50, 72 h (Taselisib/GDC0032): 0.00347 µM
- GR50, 72 h (Olaparib/AZD2281): > 10 µM
- GR value (YKL-5-124; 0.001 µM): -0.181 GR
- GR value (YKL-5-124; 0.003162 µM): 0.0065 GR
- GR value (YKL-5-124; 0.01 µM): -0.018 GR
- GR value (YKL-5-124; 0.03162 µM): -0.112 GR
- GR value (YKL-5-124; 0.1 µM): -0.198 GR
- GR value (YKL-5-124; 0.3162 µM): -0.167 GR
- GR value (YKL-5-124; 1 µM): -0.274 GR
- GR value (YKL-5-124; 3.162 µM): -0.448 GR
- GR value (BSJ-03-123; 0.001 µM): 0.917 GR
- GR value (BSJ-03-123; 0.003162 µM): 0.854 GR
- GR value (BSJ-03-123; 0.01 µM): 0.911 GR
- GR value (BSJ-03-123; 0.03162 µM): 0.8 GR
- GR value (BSJ-03-123; 0.1 µM): 0.722 GR
- GR value (BSJ-03-123; 0.3162 µM): 0.669 GR
- GR value (BSJ-03-123; 1 µM): 0.45 GR
- GR value (BSJ-03-123; 3.162 µM): 0.337 GR
- GR value ([2]; 0.0003162 µM): 1.09 GR
- GR value ([2]; 0.001 µM): 0.993 GR
- GR value ([2]; 0.003162 µM): 1.03 GR
- GR value ([2]; 0.01 µM): 1.04 GR
- GR value ([2]; 0.03162 µM): 0.784 GR
- GR value ([2]; 0.1 µM): 0.588 GR
- GR value ([2]; 0.3162 µM): 0.461 GR
- GR value ([2]; 1 µM): 0.514 GR
- GR value ([2]; 3.162 µM): 0.397 GR
- GR value ([3]; 0.001 µM): 0.905 GR
- GR value ([3]; 0.003162 µM): 0.922 GR
- GR value ([3]; 0.01 µM): 0.666 GR
- GR value ([3]; 0.03162 µM): 0.413 GR
- GR value ([3]; 0.1 µM): 0.251 GR
- GR value ([3]; 0.3162 µM): 0.237 GR
- GR value ([3]; 1 µM): 0.201 GR
- GR value ([3]; 3.162 µM): 0.134 GR
- GR value ([3]; 10 µM): -0.763 GR
- GR value ([4]; 0.0001 µM): 0.983 GR
- GR value ([4]; 0.0003162 µM): 1.03 GR
- GR value ([4]; 0.001 µM): 1.08 GR
- GR value ([4]; 0.003162 µM): 0.918 GR
- GR value ([4]; 0.01 µM): 0.257 GR
- GR value ([4]; 0.03162 µM): -0.925 GR
- GR value (LEE011/Ribociclib; 0.001 µM): 0.854 GR
- GR value (LEE011/Ribociclib; 0.003162 µM): 0.783 GR
- GR value (LEE011/Ribociclib; 0.01 µM): 0.676 GR
- GR value (LEE011/Ribociclib; 0.03162 µM): 0.637 GR
- GR value (LEE011/Ribociclib; 0.1 µM): 0.663 GR
- GR value (LEE011/Ribociclib; 0.3162 µM): 0.636 GR
- GR value (LEE011/Ribociclib; 1 µM): 0.55 GR
- GR value (LEE011/Ribociclib; 3.162 µM): 0.545 GR
- GR value (LEE011/Ribociclib; 10 µM): 0.378 GR
- GR value (THZ531; 0.0001 µM): 1.05 GR
- GR value (THZ531; 0.0003162 µM): 0.994 GR
- GR value (THZ531; 0.001 µM): 0.799 GR
- GR value (THZ531; 0.003162 µM): 1.04 GR
- GR value (THZ531; 0.01 µM): 0.941 GR
- GR value (THZ531; 0.03162 µM): 0.783 GR
- GR value (THZ531; 0.1 µM): -0.203 GR
- GR value (Flavopiridol [5]; 0.0001 µM): 0.968 GR
- GR value (Flavopiridol [5]; 0.0003162 µM): 0.969 GR
- GR value (Flavopiridol [5]; 0.001 µM): 0.862 GR
- GR value (Flavopiridol [5]; 0.003162 µM): 0.951 GR
- GR value (Flavopiridol [5]; 0.01 µM): 0.707 GR
- GR value (Flavopiridol [5]; 0.03162 µM): 0.489 GR
- GR value (Flavopiridol [5]; 0.1 µM): -0.0333 GR
- GR value (Flavopiridol [5]; 0.3162 µM): -0.573 GR
